Results taken from patent publication US8673894B2 (Hoffmann-La Roche Inc., priority 2010, dated 2014).
pIC50: −log10 of the molar value. Where a name gives a salt, the structure may show the parent alone.

Key:
[1] = molecular target: T1, endogenous cellular BACE2 (Rattus norvegicus, UniProt Q6IE75); experiment: Assay for BACE inhibition by measuring cellular TMEM27 cleavage; assay type: cell-based; settings: INS-TMEM27 (INS1e-derived) cells, shed human TMEM27 in supernatant by ELISA
T1 construct: endogenous cellular BACE2 in the Ins1e rat cell line; endogenous in cells; host or cells: INS-TMEM27 (INS1e-derived rat insulinoma cell line with doxycycline-inducible full-length human TMEM27)
T1 sequence (Q6IE75 63-514): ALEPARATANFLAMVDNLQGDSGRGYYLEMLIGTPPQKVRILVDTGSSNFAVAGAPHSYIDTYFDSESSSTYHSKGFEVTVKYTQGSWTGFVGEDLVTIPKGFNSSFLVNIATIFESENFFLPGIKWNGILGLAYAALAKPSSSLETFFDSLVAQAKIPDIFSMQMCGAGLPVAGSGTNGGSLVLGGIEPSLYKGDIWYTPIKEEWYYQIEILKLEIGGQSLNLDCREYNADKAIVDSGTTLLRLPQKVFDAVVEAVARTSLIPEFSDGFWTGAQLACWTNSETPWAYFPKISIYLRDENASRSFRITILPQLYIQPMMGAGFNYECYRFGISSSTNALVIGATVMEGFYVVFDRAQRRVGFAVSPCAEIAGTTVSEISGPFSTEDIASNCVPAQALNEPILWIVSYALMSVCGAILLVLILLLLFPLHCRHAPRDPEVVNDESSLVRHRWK
From the text: Assay for BACE Inhibition by Measuring Cellular TMEM27 Cleavage:
The assay uses the principle of inhibition of human TMEM27 cleavage by endogenous cellular BACE2 in the Ins1e rat cell line and shedding from the cell surface into the culture medium, followed by detection in an ELISA assay. Inhibition of BACE2 prevents the cleavage and shedding in a dose-dependent manner.
The stable cell line “INS-TMEM27” represents an INS1e-derived cell line with inducible expression (using the TetOn system) of full-length hTMEM27 in a doxycycline-dependent manner. The cells are cultured throughout the experiment in RPMI1640+ Glutamax (Invitrogen) Penicillin/Streptomycin, 10% Fetal bovine serum, […], […], 100 micrograms/ml G418 and 100 microgram/ml hygromycin and are grown inadherent culture at 37° C. in a standard CO2 cell culture incubator.
INS-TMEM27 cells are seeded in 96-well plates. After 2 days in culture, BACE2 inhibitor is added in a range of concentrations as required by the assay and after a further two hours, doxycycline is added to a final concentration of 500 ng/ml. The cells are incubated for a further 46 hours and the supernatant harvested for detection of shed TMEM27.
An ELISA assay (using a pair of mouse anti-human-TMEM27 antibodies, raised against the extracellular domain of TMEM27) is used for detection of TMEM27 in the culture medium. An EC50 for BACE2 inhibition is calculated using the ELISA readout for each inhibitor concentration with standard curve-fitting software such as XLFit for the Excel spreadsheet program.

Aβ40 = experiment: Cellular Aβ-lowering assay; assay type: cell-based; settings: HEK293 cells stably expressing human APP695, Aβ40 in supernatant by ELISA after 18-20 hrs; read-out: Cellular assay Abeta40 IC50
Method: Cellular Aβ-Lowering Assay:
Human HEK293 cells which are stably transfected with a vector expressing a cDNA of the human APP wt gene (APP695) were used to assess the potency of the compounds in a cellular assay. The cells were seeded in 96-well microtiter plates in cell culture medium (Iscove, plus 10% (v/v) fetal bovine serum, glutamine, penicillin/streptomycin) to about 80% confluence and the compounds were added at a 10× concentration in 1/10 volume of medium without FCS containing 8% DMSO (final concentration of DMSO was kept at 0.8% v/v). After 18-20 hrs incubation at 37° C. and 5% CO2 in a humidified incubator the culture supernatant was harvested for the determination of Aβ40 concentrations. 96well ELISA plates (e.g., Nunc MaxiSorb) were coated with monoclonal antibody which specifically recognize the C-terminal end of Aβ40 (Brockhaus et al., NeuroReport 9, 1481-1486; 1998). After blocking of non-specific binding sites with e.g. 1% BSA and washing, the culture supernatants were added in suitable dilutions together with a horseradish peroxidase-coupled Aβ detection antibody (e.g., antibody 4G8, Senetek, Maryland Heights, Mo.) and incubated for 5 to 7 hrs. Subsequently the wells of the microtiter plate were washed extensively with Tris-buffered saline containing 0.05% Tween 20 and the assay was developed with tetramethylbenzidine/H2O2 in citric acid buffer. After stopping the reaction with one volume 1 N H2SO4 the reaction was measured in an ELISA reader at 450 nm wavelength. The concentrations of Aβ in the culture supernatants were calculated from a standard curve obtained with known amounts of pure Aβ peptide.

Row | SMILES | pIC50 [1] | pIC50 (Aβ40)
1 | CC1(C)C[C@@](C)(c2cc(NC(=O)C3CC3(F)F)ccc2F)N=C(N)CO1 (stereo partly drawn) [Example 19, 2,2-Difluoro-cyclopropanecarboxylic acid [3-((S)-3-amino-5,7,7-trimethyl-2,5,6,7-tetrahydro-[1,4]oxazepin-5-yl)-4-fluoro-phenyl]-amide] | 7.25 | 6.36
2 | C[C@]1(c2cc(NC(=O)c3nn(C(F)F)cc3Cl)ccc2F)N=C(N)COC[C@@H]1F [Example 115, N-(3-((5R,6R)-3-Amino-6-fluoro-5-methyl-2,5,6,7-tetrahydro-1,4-oxazepin-5-yl)-4-fluorophenyl)-4-chloro-1-(difluoromethyl)-1H-pyrazole-3-carboxamide] | 8.22 | 8.42
3 | CCn1cc(Cl)c(C(=O)Nc2ccc(F)c([C@@]3(C)N=C(N)COCC3(F)F)c2)n1 [Example 95, (R)-N-(3-(3-Amino-6,6-difluoro-5-methyl-2,5,6,7-tetrahydro-1,4-oxazepin-5-yl)-4-fluorophenyl)-4-chloro-1-ethyl-1H-pyrazole-3-carboxamide] | 7.18 | 7.66
4 | CC[C@]1(c2cc(NC(=O)c3ccc(Cl)cn3)ccc2F)N=C(N)COCC1(F)F [Example 82, (R)-N-(3-(3-Amino-5-ethyl-6,6-difluoro-2,5,6,7-tetrahydro-1,4-oxazepin-5-yl)-4-fluorophenyl)-5-chloropicolinamide] | 7.44 | 7.40
5 | C[C@@]1(c2cc(NC(=O)c3ncc(Cl)cc3Cl)ccc2F)CCOCC(N)=N1 [Example 8, 3,5-Dichloro-pyridine-2-carboxylic acid [3-((S)-3-amino-5-methyl-2,5,6,7-tetrahydro-[1,4]oxazepin-5-yl)-4-fluoro-phenyl]-amide] | 8.74 | 8.60
6 | CC[C@]1(c2cc(NC(=O)c3ncc(Cl)cn3)ccc2F)N=C(N)COCC1(F)F [Example 80, (R)-N-(3-(3-Amino-5-ethyl-6,6-difluoro-2,5,6,7-tetrahydro-1,4-oxazepin-5-yl)-4-fluorophenyl)-5-chloropyrimidine-2-carboxamide] | 7.25 | 7.64

The remaining molecules from weak to strong by pIC50 [1], led by results:

Row | pIC50 [1] | pIC50 (Aβ40) | SMILES
7 | 6.35 | 6.66 | Cc1c[nH]nc1C(=O)Nc1ccc(F)c([C@@]2(C)N=C(N)COCC2(F)F)c1 [Example 97, (R)-N-(3-(3-Amino-6,6-difluoro-5-methyl-2,5,6,7-tetrahydro-1,4-oxazepin-5-yl)-4-fluorophenyl)-4-methyl-1H-pyrazole-3-carboxamide]
8 | 6.42 | 7.12 | C[C@]1(c2cc(NC(=O)C3CC3(F)F)ccc2F)N=C(N)COCC1(F)F (stereo partly drawn) [Example 34, N-(3-((R)-3-amino-6,6-difluoro-5-methyl-2,5,6,7-tetrahydro-1,4-oxazepin-5-yl)-4-fluorophenyl)-2,2-difluorocyclopropanecarboxamide formate]
9 | 6.75 | 6.12 | CC[C@]1(c2cc(NC(=O)c3ncccc3C(F)(F)F)ccc2F)N=C(N)COCC1(F)F [Example 77, (R)-N-(3-(3-Amino-5-ethyl-6,6-difluoro-2,5,6,7-tetrahydro-1,4-oxazepin-5-yl)-4-fluorophenyl)-3-(trifluoromethyl)picolinamide]
10 | 7.25 | 7.32 | C[C@]1(c2cc(NC3CCCC3)ccc2F)N=C(N)COC[C@@H]1F [Example 65, (5R,6R)-5-(5-(cyclopentylamino)-2-fluorophenyl)-6-fluoro-5-methyl-2,5,6,7-tetrahydro-1,4-oxazepin-3-amine]
11 | 8.44 | 7.44 | C[C@@]1(c2cc(NC(=O)c3ncccc3F)ccc2F)CCOCC(N)=N1 [Example 6, 3-Fluoro-pyridine-2-carboxylic acid [3-((S)-3-amino-5-methyl-2,5,6,7-tetrahydro-[1,4]oxazepin-5-yl)-4-fluoro-phenyl]-amide formate]
